Here are results for 4 compounds from ChEMBL document CHEMBL5442219.

Structures are written as SMILES.

Holding throughout (settings): Compound concentration 10 µM
The target of assay [1] is Histamine H3 receptor (Homo sapiens) (UniProt Q9Y5N1).
The target in assay [2] is 5-hydroxytryptamine receptor 6 (Homo sapiens) (UniProt P50406).
Assay [3] has as its target T1, Alpha-2C adrenergic receptor (Homo sapiens) (UniProt P18825).
T1 sequence (whole entry): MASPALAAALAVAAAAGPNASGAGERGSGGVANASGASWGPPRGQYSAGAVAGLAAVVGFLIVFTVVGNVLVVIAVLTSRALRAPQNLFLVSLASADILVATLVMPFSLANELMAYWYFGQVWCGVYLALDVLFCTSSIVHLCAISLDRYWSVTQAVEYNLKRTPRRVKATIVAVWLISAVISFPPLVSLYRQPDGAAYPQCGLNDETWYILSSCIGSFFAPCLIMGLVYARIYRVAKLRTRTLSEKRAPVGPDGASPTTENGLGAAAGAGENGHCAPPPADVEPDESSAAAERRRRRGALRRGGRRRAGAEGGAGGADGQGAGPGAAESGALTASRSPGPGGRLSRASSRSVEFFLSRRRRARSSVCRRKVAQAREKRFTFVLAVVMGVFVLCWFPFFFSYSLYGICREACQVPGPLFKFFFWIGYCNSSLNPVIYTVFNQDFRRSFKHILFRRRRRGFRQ

Assay [4] has as its target Histamine H4 receptor (Homo sapiens) (UniProt Q9H3N8).
The target in assay [5] is T2, Alpha-2A adrenergic receptor (Homo sapiens) (UniProt P08913).
T2 sequence (whole entry): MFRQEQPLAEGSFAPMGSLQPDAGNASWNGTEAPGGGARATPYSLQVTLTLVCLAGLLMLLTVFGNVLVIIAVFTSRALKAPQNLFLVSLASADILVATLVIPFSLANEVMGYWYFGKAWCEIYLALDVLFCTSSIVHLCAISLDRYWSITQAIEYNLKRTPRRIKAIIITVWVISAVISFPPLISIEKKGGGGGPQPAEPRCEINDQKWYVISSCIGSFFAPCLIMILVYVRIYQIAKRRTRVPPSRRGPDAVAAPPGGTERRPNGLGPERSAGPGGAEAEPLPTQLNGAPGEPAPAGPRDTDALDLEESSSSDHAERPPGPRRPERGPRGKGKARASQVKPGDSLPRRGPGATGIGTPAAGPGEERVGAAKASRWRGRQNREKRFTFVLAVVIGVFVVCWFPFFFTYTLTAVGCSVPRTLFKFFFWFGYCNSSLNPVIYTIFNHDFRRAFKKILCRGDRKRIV

The target in assay [6] is Sodium-dependent noradrenaline transporter (Homo sapiens) (UniProt P23975).
Sequence of Sodium-dependent noradrenaline transporter (Homo sapiens) (P23975 whole entry): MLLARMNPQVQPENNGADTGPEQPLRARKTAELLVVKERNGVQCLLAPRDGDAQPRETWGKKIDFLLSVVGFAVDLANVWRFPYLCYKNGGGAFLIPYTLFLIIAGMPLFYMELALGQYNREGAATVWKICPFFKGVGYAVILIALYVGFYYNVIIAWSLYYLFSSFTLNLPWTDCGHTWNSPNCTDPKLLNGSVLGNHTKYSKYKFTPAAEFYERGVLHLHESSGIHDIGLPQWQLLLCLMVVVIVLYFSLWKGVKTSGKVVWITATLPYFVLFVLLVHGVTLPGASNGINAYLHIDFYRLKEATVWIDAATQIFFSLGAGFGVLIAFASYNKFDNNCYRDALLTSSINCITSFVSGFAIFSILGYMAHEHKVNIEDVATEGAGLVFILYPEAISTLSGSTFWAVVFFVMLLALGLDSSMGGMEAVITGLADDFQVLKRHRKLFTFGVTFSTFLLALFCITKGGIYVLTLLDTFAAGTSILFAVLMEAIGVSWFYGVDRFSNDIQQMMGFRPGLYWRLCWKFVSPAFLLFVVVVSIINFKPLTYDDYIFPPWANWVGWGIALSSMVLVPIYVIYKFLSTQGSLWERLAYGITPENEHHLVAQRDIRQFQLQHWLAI
In assay [7] the target is 5-hydroxytryptamine receptor 1E (Homo sapiens) (UniProt P28566).
Sequence of 5-hydroxytryptamine receptor 1E (Homo sapiens) (P28566 whole entry): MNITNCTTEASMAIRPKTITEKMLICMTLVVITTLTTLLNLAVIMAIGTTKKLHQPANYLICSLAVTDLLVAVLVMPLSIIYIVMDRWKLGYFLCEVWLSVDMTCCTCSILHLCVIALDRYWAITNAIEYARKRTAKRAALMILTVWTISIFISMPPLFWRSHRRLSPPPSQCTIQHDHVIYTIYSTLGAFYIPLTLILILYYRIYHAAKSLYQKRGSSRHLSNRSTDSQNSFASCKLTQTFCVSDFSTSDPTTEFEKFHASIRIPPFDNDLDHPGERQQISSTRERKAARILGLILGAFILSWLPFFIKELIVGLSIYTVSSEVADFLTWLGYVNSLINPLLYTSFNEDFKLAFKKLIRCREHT
The target in assay [8] is T3, D(4) dopamine receptor (Homo sapiens) (UniProt P21917).
T3 sequence (whole entry): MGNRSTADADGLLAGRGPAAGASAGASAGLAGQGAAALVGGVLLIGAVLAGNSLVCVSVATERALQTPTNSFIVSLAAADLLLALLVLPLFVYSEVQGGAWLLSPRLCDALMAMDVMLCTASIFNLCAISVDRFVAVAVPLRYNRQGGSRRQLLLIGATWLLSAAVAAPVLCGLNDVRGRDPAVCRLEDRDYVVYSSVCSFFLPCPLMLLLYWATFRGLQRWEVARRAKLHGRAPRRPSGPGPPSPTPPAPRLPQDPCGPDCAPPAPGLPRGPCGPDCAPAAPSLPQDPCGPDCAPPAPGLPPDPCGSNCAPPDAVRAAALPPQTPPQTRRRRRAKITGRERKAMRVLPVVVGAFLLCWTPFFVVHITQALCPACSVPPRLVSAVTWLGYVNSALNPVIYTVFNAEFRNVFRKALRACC

The target in assay [9] is 5-hydroxytryptamine receptor 7 (Homo sapiens) (UniProt P34969).
Sequence of 5-hydroxytryptamine receptor 7 (Homo sapiens) (P34969 whole entry): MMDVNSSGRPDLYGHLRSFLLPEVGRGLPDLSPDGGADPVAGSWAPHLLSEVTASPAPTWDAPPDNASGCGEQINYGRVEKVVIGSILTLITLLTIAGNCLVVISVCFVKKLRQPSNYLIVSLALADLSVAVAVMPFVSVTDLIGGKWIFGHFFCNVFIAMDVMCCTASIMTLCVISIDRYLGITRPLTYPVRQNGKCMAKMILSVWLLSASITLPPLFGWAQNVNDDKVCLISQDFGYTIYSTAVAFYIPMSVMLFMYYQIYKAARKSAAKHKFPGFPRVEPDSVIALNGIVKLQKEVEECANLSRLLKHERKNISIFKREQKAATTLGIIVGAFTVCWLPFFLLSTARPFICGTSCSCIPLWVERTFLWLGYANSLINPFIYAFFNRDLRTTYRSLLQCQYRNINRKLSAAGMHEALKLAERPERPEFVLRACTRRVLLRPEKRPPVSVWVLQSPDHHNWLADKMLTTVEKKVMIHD
The target in assay [10] is D(3) dopamine receptor (Homo sapiens) (UniProt P35462).
Sequence of D(3) dopamine receptor (Homo sapiens) (P35462 whole entry): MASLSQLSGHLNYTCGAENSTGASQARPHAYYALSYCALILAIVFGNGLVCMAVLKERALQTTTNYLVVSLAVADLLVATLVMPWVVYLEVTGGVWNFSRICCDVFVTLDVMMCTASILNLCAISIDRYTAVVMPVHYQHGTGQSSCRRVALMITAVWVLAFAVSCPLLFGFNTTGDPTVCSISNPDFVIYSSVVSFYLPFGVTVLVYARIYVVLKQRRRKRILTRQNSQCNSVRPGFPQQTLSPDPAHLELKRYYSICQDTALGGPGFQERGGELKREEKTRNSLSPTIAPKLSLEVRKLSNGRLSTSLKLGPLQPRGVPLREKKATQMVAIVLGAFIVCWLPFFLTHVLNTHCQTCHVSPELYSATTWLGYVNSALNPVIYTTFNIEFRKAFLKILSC
The target of assay [11] is T4, 5-hydroxytryptamine receptor 3A (Homo sapiens) (UniProt P46098).
T4 sequence (whole entry): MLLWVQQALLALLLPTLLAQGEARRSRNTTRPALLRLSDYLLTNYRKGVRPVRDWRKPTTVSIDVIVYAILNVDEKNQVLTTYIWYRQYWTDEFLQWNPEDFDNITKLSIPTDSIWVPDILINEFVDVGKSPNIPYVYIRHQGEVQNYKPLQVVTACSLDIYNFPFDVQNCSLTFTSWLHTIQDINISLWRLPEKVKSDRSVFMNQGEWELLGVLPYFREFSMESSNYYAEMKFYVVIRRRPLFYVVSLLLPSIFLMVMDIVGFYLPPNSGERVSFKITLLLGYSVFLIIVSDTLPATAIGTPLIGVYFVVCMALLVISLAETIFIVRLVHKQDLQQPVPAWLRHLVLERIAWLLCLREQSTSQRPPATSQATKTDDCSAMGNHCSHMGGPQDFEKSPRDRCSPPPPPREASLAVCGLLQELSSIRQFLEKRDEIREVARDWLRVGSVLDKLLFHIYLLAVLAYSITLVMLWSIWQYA

The target of assay [12] is Muscarinic acetylcholine receptor M3 (Homo sapiens) (UniProt P20309).
Sequence of Muscarinic acetylcholine receptor M3 (Homo sapiens) (P20309 whole entry, looked up): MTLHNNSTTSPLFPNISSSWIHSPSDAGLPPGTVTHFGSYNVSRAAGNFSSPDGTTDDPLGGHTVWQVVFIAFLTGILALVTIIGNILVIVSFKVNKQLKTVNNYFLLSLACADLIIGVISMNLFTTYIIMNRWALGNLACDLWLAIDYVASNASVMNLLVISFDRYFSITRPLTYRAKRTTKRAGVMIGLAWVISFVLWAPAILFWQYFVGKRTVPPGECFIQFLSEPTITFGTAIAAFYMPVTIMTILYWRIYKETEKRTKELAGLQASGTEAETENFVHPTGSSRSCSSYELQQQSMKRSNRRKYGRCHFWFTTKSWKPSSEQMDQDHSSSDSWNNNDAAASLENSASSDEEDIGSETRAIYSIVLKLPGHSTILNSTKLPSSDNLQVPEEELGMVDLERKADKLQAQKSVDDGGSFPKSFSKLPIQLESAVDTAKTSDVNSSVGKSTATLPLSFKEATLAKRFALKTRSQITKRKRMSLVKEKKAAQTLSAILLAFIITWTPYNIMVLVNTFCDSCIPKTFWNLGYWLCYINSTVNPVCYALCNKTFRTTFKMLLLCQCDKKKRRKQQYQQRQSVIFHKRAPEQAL
Assay [13] concerns the target T5, 5-hydroxytryptamine receptor 1A (Homo sapiens) (UniProt P08908).
T5 sequence (whole entry): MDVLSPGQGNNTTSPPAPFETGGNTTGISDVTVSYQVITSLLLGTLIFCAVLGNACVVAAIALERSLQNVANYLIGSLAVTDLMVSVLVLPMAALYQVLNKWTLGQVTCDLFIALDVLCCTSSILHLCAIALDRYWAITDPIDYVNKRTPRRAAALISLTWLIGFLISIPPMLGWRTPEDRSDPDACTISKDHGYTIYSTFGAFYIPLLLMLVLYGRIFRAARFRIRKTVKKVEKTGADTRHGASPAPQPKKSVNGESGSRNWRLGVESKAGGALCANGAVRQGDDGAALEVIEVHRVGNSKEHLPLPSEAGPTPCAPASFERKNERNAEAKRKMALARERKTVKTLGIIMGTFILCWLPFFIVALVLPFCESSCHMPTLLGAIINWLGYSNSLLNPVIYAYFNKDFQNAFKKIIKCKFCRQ

For assay [14], the target named is Sodium-dependent serotonin transporter (Homo sapiens) (UniProt P31645).
Sequence of Sodium-dependent serotonin transporter (Homo sapiens) (P31645 whole entry, looked up): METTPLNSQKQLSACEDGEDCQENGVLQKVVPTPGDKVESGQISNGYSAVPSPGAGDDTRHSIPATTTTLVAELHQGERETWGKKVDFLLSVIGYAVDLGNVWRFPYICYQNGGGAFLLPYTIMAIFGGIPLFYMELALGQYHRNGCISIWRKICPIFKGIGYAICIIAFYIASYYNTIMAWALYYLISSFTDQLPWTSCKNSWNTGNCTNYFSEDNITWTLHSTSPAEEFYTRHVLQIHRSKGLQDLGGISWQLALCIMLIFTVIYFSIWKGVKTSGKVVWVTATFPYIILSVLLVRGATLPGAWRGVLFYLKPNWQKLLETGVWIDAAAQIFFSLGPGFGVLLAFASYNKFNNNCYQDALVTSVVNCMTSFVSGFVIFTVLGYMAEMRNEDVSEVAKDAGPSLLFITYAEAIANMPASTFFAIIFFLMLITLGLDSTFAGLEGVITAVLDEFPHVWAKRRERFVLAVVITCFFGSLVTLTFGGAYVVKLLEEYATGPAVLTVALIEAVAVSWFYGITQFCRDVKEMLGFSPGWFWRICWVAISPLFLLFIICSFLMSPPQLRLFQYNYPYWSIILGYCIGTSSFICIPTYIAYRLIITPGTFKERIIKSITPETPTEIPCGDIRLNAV

Sequence of 5-hydroxytryptamine receptor 6 (Homo sapiens) (P50406 whole entry): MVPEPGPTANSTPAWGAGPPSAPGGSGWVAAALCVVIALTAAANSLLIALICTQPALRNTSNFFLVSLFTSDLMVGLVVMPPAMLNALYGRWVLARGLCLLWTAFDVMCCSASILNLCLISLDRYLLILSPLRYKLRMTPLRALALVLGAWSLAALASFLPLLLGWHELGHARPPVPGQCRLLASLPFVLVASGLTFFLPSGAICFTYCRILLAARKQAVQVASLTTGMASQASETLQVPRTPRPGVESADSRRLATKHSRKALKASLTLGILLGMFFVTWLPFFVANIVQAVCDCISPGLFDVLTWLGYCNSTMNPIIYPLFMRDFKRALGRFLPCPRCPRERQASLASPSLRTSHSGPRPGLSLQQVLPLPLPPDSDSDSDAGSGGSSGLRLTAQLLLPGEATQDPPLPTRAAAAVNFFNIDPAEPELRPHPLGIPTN
Sequence of Histamine H4 receptor (Homo sapiens) (Q9H3N8 whole entry): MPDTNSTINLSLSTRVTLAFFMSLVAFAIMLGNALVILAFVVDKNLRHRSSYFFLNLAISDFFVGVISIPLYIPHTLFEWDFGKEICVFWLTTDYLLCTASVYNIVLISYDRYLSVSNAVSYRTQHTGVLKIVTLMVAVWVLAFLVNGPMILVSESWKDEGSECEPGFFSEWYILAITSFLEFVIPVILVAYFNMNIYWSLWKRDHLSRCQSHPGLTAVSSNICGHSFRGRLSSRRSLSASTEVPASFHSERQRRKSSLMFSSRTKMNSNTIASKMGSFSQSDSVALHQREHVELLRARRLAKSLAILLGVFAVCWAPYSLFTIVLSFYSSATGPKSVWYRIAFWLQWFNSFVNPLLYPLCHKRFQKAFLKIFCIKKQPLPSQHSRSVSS
Sequence of Histamine H3 receptor (Homo sapiens) (Q9Y5N1 whole entry): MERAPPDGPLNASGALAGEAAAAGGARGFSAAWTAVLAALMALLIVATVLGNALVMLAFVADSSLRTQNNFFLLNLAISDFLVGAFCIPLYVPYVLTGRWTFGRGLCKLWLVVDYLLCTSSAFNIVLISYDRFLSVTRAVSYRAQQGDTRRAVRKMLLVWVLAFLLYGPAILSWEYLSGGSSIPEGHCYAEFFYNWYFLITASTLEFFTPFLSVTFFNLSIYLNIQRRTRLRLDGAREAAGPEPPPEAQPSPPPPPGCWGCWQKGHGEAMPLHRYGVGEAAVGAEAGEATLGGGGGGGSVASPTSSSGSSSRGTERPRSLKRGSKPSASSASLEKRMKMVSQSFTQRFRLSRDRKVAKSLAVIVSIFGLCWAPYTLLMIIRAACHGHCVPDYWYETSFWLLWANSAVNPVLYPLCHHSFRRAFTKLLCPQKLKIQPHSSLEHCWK

For the compound `CCCCN1CCC(COC(=O)c2cc(Cl)c(N)c3c2OCCO3)CC1`, the inhibition is 32.8% in assay [1]; 20.1% in assay [2]; 78.8% in assay [3]; -1.37% in assay [4]; 66.1% in assay [5]; 42.9% in assay [6]. For the same compound, the inhibition is 22.6% in assay [7]; 24.9% in assay [8]; 40% in assay [9]; 58.8% in [10]; 72.4% in assay [11]; 14.6% in assay [12]. Further, the inhibition is -1.01% in [13] and 14.6% in assay [14].

In the case of `Cc1ccccc1C(=O)Nc1ccc(C(=O)N2CCCC(O)c3cc(Cl)ccc32)c(C)c1` (stereo unspecified), the inhibition in [1] is 6.39%; in assay [2], 1.21%; in [3], 9.34%; in [4], 3.66%; in [5], 33.8%; in assay [6], 20.8%. The inhibition was 0.51% in [7]; 20% in assay [8]; 8.44% in [9]; 33% in assay [10]; -5.18% in assay [11]; 17.3% in assay [12]. In addition, the inhibition in [13] was 7.65%; in [14], 10.7%.

`COc1cccc([C@@H](C)NCCCc2ccccc2Cl)c1`: the inhibition in [1] is 26.7%; in [2], 84.3%; in assay [3], 79.9%; in [4], 0%; in assay [5], 45.1%; in assay [6], 64.6%. For the same compound, the inhibition in assay [7] is 4.34%; in assay [8], 32.2%; in assay [9], 48.8%; in assay [10] it was 85%; in [11], -2.74%; in [12], 0.89%. Besides, the inhibition in assay [13] was 54.6%; in assay [14], 26.1%.

For the compound `COC(=O)C1=C(C)NC(C)=C(C(=O)OCCCN2CCC(c3ccccc3)(c3ccccc3)CC2)[C@H]1c1cccc([N+](=O)[O-])c1`, the inhibition in [1] is 62.2%; in assay [2], 71.6%; in assay [3], 94.8%; in assay [4] it was 27.4%; in [5], 90.1%; in assay [6], 86.5%. Also, the inhibition in assay [7] is 40%; in assay [8], 41.5%; in [9] it was 84.6%; in assay [10], 81.8%; in [11] it was 43.2%; in [12] it was 61.2%. Moreover, the results for the inhibition in assay [13] and in assay [14] were 83.7% and 85.7%, respectively.
